Measurements as given in patent US11352350B2, “IRAK degraders and uses thereof” (Kymera Therapeutics, Inc., priority 2018, dated 2022).

Columns and labels:
IRAK4 [1] = molecular target: T1, IRAK4 (Homo sapiens (Human), UniProt Q9NWZ3); test: IRAK4 MSD degradation in OCI-LY10; type: cell-based
Summary of the method: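 Remaining IRAK4 quantified by electrochemiluminescent MSD sandwich assay with two anti-IRAK4 antibodies. Compounds were dosed as 8 concentrations in 1:3 steps from a 1 to 10 μM final top on OCI-LY10 cells, incubated 4 to 24 h at 37° C. under 5% CO2. DC50 fitted with a three-parameter logistic curve.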

IRAK4 [2] = molecular target: T1, IRAK4; test: hPBMC IRAK4 degradation flow assay; type: cell-based; conditions: hPBMC monocyte
Method: hPBMC IRAK4 degradation flow assay. Frozen PBMCs were thawed into RPMI with 10% FBS and allowed to recover. On the same day as thawed, PBMCs were plated in 96 well plate, 90 uL per well. Compound plates were prepared and a 10 point, 5-fold dilution was performed with a final DMSO concentration of 0.1%. Compound 10 μL per well was added, sealed and incubated at 37° C., 5% C02 for 20 hours (for 4 hour treatment, compounds were prepared and added the following day). […] Cells were spun down and washed two times with PBS/0.5% BSA, aspirated to pellet and placed into −80° C. freezer until further processing for flow. On the flow run day, PBMC plates were thawed and samples were transferred to PCR plates. The pre-perm staining cocktail (CD3 Ax488/CD8 BUV805/CD14 BUV395/CD16/56 BV711/CD19 BV785) was added to samples and incubated for 30 minutes at room temperature. Samples were washed two times and permeabilized with methanol for 10 minutes at 4° C. […] Samples were washed two times with PBS/BSA and run on a BD LSRFortessa. Mononuclear cells are gated by SSCH/FSCH and single cells. Monocytes are then gated through CD14 positive gate and lymphocytes are gated through CD14 negative gate. To determine absolute DC50s and max degradation values, MFI values were normalized to DMSO max and 20 hour 10 μM min control. Twenty hour dose curves were calculated using a 4 parameter logistic regression curve fit, no constraints (Top doses were removed if hook effects were observed and the bottom was constrained to 0).

OCI-LY10 = test: CTG Cell Viability Assay - OCI-LY10; type: cell-based, human; conditions: Homo sapiens, OCI-Ly10, 96 h, OCI-LY10, 4 days; read-out: CTG Cell Viability Assay - OCI-LY10: Average external-IC50
Summary of the method: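 Viability read by CellTiter-Glo luminescence after 4 days at 37° C under 5% CO2 with compound (top 10 μM final, 1:3 steps, 9 doses, DMSO 0.2%). Three-parameter logistic fit gave IC50.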

IL-6 = IL-6 secretion in hPBMC using R848 stimulation; type: cell-based, human; conditions: Homo sapiens, 20 h, hPBMC, R848 as stim, t = 20 h
[3] = OCI-LY10, 4 hrs, read-out: IRAK4 MSD degradation in OCI-LY10 at 4 hrs: DC50
[4] = 20 hrs, read-out: IRAK4 degradation in hPBMC monocyte: DC50
[5] = OCI-LY10, 4 hrs, MSD, read-out: IRAK4 MSD degradation in OCI-LY10 at 4 hrs: Average external-Abs DC50
[6] = OCI-LY10, 24 hrs, MSD, read-out: IRAK4 MSD degradation in OCI-LY10 at 24 hrs: Average external-Abs DC50
[7] = 20 hr, flow assay, read-out: IRAK4 degradation in hPBMC monocyte at 20 hr: Average external Abs DC50

T1 sequence (Q9NWZ3 whole entry): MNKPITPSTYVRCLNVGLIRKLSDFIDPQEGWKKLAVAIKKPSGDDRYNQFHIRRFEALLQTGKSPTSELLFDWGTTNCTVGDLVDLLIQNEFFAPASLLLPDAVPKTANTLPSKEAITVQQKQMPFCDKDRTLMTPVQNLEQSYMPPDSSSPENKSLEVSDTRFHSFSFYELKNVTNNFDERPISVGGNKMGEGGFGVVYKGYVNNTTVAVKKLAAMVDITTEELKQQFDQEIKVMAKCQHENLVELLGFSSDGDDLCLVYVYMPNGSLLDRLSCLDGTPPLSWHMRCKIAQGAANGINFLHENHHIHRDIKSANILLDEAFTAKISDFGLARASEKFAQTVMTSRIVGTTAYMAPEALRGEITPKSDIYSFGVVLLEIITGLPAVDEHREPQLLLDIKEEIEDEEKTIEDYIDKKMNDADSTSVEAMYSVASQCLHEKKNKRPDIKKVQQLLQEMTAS

Structure (SMILES) | DC50 (IRAK4 [1]; [3]) [nM] | DC50 (IRAK4 [2]; [4]) [nM] | IC50 (OCI-LY10) [nM] | DC50 (IRAK4 [1]; [5]) [nM] | DC50 (IRAK4 [1]; [6]) [nM] | DC50 (IRAK4 [2]; [7]) [nM] | IC50 (IL-6) [nM] | DC50 (IRAK4 [1]; OCI-LY10, 24 hrs, read-out: IRAK4 MSD degradation in OCI-LY10 at 24 hrs: DC50) [nM]
Cn1c(=O)n(C2CCC(=O)NC2=O)c2cccc(CCCN3CC4CN(C(=O)[C@H]5CC[C@H](n6cc(NC(=O)c7cnn8ccc(N9C[C@H]%10C[C@@H]9CO%10)nc78)c(C(F)F)n6)CC5)CC4C3)c21 (some centres unmarked) [I-449] | < 10 | < 10 | > 1000 | – | – | – | – | –
Cn1c(=O)n(C2CCC(=O)NC2=O)c2cccc(CCCN3CC4(CCN(C(=O)[C@H]5CC[C@H](n6cc(NC(=O)c7cnn8cccnc78)c(N7CCOCC7)n6)CC5)CC4)C3)c21 (some centres unmarked) [I-494] | 100 to 1000 | 100 to 1000 | > 1000 | – | – | – | – | –
O=C1CCC(n2c3cccc(CCCN4CC5(CCN(C[C@H]6CC[C@H](n7cc(NC(=O)c8cnn9ccc(N%10C[C@H]%11C[C@@H]%10CO%11)nc89)c(C(F)F)n7)CC6)CC5)C4)c3c3cccnc32)C(=O)N1 (some centres unmarked) [I-519] | 10 to 100 | 100 to 1000 | 100 to 500 | – | – | – | – | –
O=C1CCC(n2c3cccc(CCCN4CC5(CCN(C(=O)[C@H]6CC[C@H](n7cc(NC(=O)c8cnn9ccc(N%10C[C@H]%11C[C@@H]%10CO%11)nc89)c(C(F)F)n7)CC6)CC5)C4)c3c3cccnc32)C(=O)N1 (some centres unmarked) [I-445] | 10 to 100 | < 10 | > 1000 | – | – | – | – | –
O=C1CCC(N2C(=O)c3cccc(NCC4CCN(C[C@H]5CC[C@H](n6cc(NC(=O)c7cnn8ccc(N9C[C@H]%10CC9CO%10)nc78)c(C(F)F)n6)CC5)CC4)c3C2=O)C(=O)N1 (some centres unmarked) [I-442] | 100 to 1000 | 100 to 1000 | < 50 | – | – | – | – | –
O=C1CCC(N2C(=O)c3cccc(NCCCOCC4CCN(C[C@H]5CC[C@H](n6cc7cc(NC(=O)c8cccc(C(F)(F)F)n8)c(C(F)F)cc7n6)CC5)CC4)c3C2=O)C(=O)N1 (some centres unmarked) [I-327] | – | – | 500 to 1000 | 10 to 100 | 10 to 100 | 10 to 100 | – | –
C[C@H](CCc1cccc2c1n(C)c(=O)n2C1CCC(=O)NC1=O)OC1CCN(C[C@H]2CC[C@H](n3cc(NC(=O)c4cnn5ccc(N6C[C@H]7C[C@@H]6CO7)nc45)c(C(F)F)n3)CC2)CC1 (some centres unmarked) [I-557] | < 10 | < 10 | > 1000 | – | – | – | – | –
Cn1c(=O)n(C2CCC(=O)NC2=O)c2cccc(C#CCCCOC[C@H]3CC[C@H](n4cc(NC(=O)c5cnn6ccc(N7C[C@H]8C[C@@H]7CO8)nc56)c(C(F)F)n4)CC3)c21 (some centres unmarked) [I-446] | – | – | – | – | – | – | 10 to 100 | –
CN(C[C@H]1CC[C@H](n2cc3cc(NC(=O)c4cccc(C(F)(F)F)n4)c(C(C)(C)O)cc3n2)CC1)C1CCC2(CC1)CC(CNc1cccc3c1C(=O)N(C1CCC(=O)NC1=O)C3=O)C2 (some centres unmarked) [I-331] | – | – | < 50 | 10 to 100 | < 10 | 10 to 100 | – | –
Cn1c(=O)n(C2CCC(=O)NC2=O)c2cccc(CCCC3CCN(C[C@H]4CC[C@H](n5cc(NC(=O)c6cnn7ccc(N8CCCOCC8)nc67)c(C(F)F)n5)CC4)CC3)c21 (some centres unmarked) [I-524] | < 10 | < 10 | > 1000 | – | – | – | – | –
Cn1c(=O)n(C2CCC(=O)NC2=O)c2cccc(CCC(=O)N3CC4(CCN(C[C@H]5CC[C@H](n6cc(NC(=O)c7cnn8ccc(N9C[C@H]%10C[C@@H]9CO%10)nc78)c(C(F)F)n6)CC5)CC4)C3)c21 (some centres unmarked) [I-410] | – | – | > 1000 | 10 to 100 | – | < 10 | – | –
Cn1c(=O)n(C2CCC(=O)NC2=O)c2cccc(C#CCC3CCN(C[C@H]4CC[C@H](n5cc(NC(=O)c6cnn7ccc(N8CCCOCC8)nc67)c(C(F)F)n5)CC4)CC3)c21 (some centres unmarked) [I-523] | < 10 | < 10 | > 1000 | – | – | – | – | –
CN(CCCO[C@H]1C[C@H](Nc2cccc3c2C(=O)N(C2CCC(=O)NC2=O)C3=O)C1)C[C@H]1CC[C@H](n2cc(NC(=O)c3cnn4ccc(N5C[C@H]6C[C@@H]5CO6)nc34)c(C(F)F)n2)CC1 (some centres unmarked) [I-444] | 100 to 1000 | < 10 | < 50 | – | – | – | – | < 10
CC(C)(O)c1cc2nn([C@H]3CC[C@H](CN4CCC5(CC4)CC(Nc4cccc6c4C(=O)N(C4CCC(=O)NC4=O)C6=O)C5)CC3)cc2cc1NC(=O)c1cccc(C(F)(F)F)n1 (some centres unmarked) [I-326] | – | – | < 50 | < 10 | < 10 | < 10 | – | –
